What follows are compounds tested against MCH receptor (Homo sapiens, UniProt Q99705) (assay: Receptor binding assay with Radiolabelled MCH Ligand). Details: class by percent of control at 10^-7 M or IC50.
MCH receptor, sequence (Q99705 whole entry): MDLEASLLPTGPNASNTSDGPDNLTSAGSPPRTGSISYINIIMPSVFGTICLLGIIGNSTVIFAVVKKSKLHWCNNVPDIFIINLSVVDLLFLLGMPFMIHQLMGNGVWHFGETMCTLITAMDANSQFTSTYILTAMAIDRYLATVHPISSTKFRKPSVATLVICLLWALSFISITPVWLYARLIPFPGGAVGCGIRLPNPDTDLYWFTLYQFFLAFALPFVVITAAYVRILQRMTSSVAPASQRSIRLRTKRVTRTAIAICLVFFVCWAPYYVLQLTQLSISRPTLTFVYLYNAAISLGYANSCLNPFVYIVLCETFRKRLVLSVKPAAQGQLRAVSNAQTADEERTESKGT
Parameters: expressed in transfected cells; host or cells: 293 cells (human kidney, ATCC), transient transfection; crude membranes
Outline: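 This was a filtration radioligand displacement assay: compounds, first tested at 1 and 0.1 μM and then over a range, inhibited binding of a labelled MCH ligand to transfected 293-cell membranes at room temperature for 60–120 min. Specific binding excluded a cold-MCH nonspecific signal. Ki was derived from IC50 via Cheng-Prusoff, using an independently measured KD.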
In the case of `Cc1nc(N[C@H]2CC[C@@H](NC(=O)c3cc(C(C)(C)C)nn3Cc3ccccc3)CC2)cc(N(C)C)n1` [compound 267], the class was 3 (Class 3: The value of percent of control at 10^−7 M was more than 60% or the value of IC50 was more than 200 nM.).
With `Cc1nc(N[C@H]2CC[C@@H](NC(=O)C(C)(C)Oc3ccc(Cl)cc3)CC2)cc(N(C)C)n1` [compound 268] the class was 3 (Class 3: The value of percent of control at 10^−7 M was more than 60% or the value of IC50 was more than 200 nM.).
With `Cc1nc(N[C@H]2CC[C@@H](NC(=O)/C=C/c3ccc(OC(F)(F)F)cc3)CC2)cc(N(C)C)n1` [compound 269] the class was 3 (Class 3: The value of percent of control at 10^−7 M was more than 60% or the value of IC50 was more than 200 nM.).
`Cc1nc(N[C@H]2CC[C@@H](NC(=O)c3cc(C(C)(C)C)nn3Cc3ccc(Cl)cc3Cl)CC2)cc(N(C)C)n1` [compound 270] was tested, and the class was 3 (Class 3: The value of percent of control at 10^−7 M was more than 60% or the value of IC50 was more than 200 nM.).
In the case of `Cc1nc(N[C@H]2CC[C@@H](NC(=O)C3=Cc4cc(Cl)ccc4OC3)CC2)cc(N(C)C)n1` [compound 271], the class was 3 (Class 3: The value of percent of control at 10^−7 M was more than 60% or the value of IC50 was more than 200 nM.).
For `Cc1nc(N[C@H]2CC[C@@H](NC(=O)c3cnn(C)c3Cl)CC2)cc(N(C)C)n1` [compound 272], the class was 3 (Class 3: The value of percent of control at 10^−7 M was more than 60% or the value of IC50 was more than 200 nM.).
With `Cc1nc(N[C@H]2CC[C@@H](NC(=O)COc3cccc4c(C)cc(=O)oc34)CC2)cc(N(C)C)n1` [compound 273] the class was 3 (Class 3: The value of percent of control at 10^−7 M was more than 60% or the value of IC50 was more than 200 nM.).
In the case of `Cc1nc(N[C@H]2CC[C@@H](NC(=O)CN3C(=O)c4ccccc4C3=O)CC2)cc(N(C)C)n1` [compound 274], the class was 3 (Class 3: The value of percent of control at 10^−7 M was more than 60% or the value of IC50 was more than 200 nM.).
With `CC(=O)c1ccc(OCC(=O)N[C@H]2CC[C@@H](Nc3cc(N(C)C)nc(C)n3)CC2)cc1` [compound 275] the class was 3 (Class 3: The value of percent of control at 10^−7 M was more than 60% or the value of IC50 was more than 200 nM.).
With `Cc1nc(N[C@H]2CC[C@@H](NC(=O)C3CCCC[C@@H]3NC(=O)c3ccccc3)CC2)cc(N(C)C)n1` (stereo partly drawn) [compound 276] the class was 3 (Class 3: The value of percent of control at 10^−7 M was more than 60% or the value of IC50 was more than 200 nM.).
For `Cc1nc(N[C@H]2CC[C@@H](NC(=O)CC3=CCCCC3)CC2)cc(N(C)C)n1` [compound 278], the class was 3 (Class 3: The value of percent of control at 10^−7 M was more than 60% or the value of IC50 was more than 200 nM.).
In the case of `Cc1nc(N[C@H]2CC[C@@H](NC(=O)CC3CCCCC3)CC2)cc(N(C)C)n1` [compound 279], the class was 3 (Class 3: The value of percent of control at 10^−7 M was more than 60% or the value of IC50 was more than 200 nM.).
For `Cc1ccnc(SCC(=O)N[C@H]2CC[C@@H](Nc3cc(N(C)C)nc(C)n3)CC2)n1` [compound 280], the class was 3 (Class 3: The value of percent of control at 10^−7 M was more than 60% or the value of IC50 was more than 200 nM.).
With `Cc1nc(N[C@H]2CC[C@@H](NC(=O)c3cc(C)n(Cc4cccs4)c3C)CC2)cc(N(C)C)n1` [compound 283] the class was 3 (Class 3: The value of percent of control at 10^−7 M was more than 60% or the value of IC50 was more than 200 nM.).
`Cc1nc(N[C@H]2CC[C@@H](NC(=O)c3ccc(I)o3)CC2)cc(N(C)C)n1` [compound 285, N-(cis-4-{[6-(dimethylamino)-2-methylpyrimidin-4-yl]amino}cyclohexyl)-5-iodo-2-furamide] was tested, and the class was 3 (Class 3: The value of percent of control at 10^−7 M was more than 60% or the value of IC50 was more than 200 nM.).
For `Cc1nc(N[C@H]2CC[C@@H](NC(=O)Cc3ccccc3I)CC2)cc(N(C)C)n1` [compound 287], the class was 3 (Class 3: The value of percent of control at 10^−7 M was more than 60% or the value of IC50 was more than 200 nM.).
With `Cc1ccc(-c2cc(C(=O)N[C@H]3CC[C@@H](Nc4cc(N(C)C)nc(C)n4)CC3)cs2)cc1` [compound 288] the class was 3 (Class 3: The value of percent of control at 10^−7 M was more than 60% or the value of IC50 was more than 200 nM.).
In the case of `Cc1nc(N[C@H]2CC[C@@H](NC(=O)Cc3nc(-c4ccccc4)sc3C)CC2)cc(N(C)C)n1` [compound 289], the class was 3 (Class 3: The value of percent of control at 10^−7 M was more than 60% or the value of IC50 was more than 200 nM.).
For `COc1ccc2c(CC(=O)N[C@H]3CC[C@@H](Nc4cc(N(C)C)nc(C)n4)CC3)cc(=O)oc2c1` [compound 291], the class was 3 (Class 3: The value of percent of control at 10^−7 M was more than 60% or the value of IC50 was more than 200 nM.).
`Cc1nc(N[C@H]2CC[C@@H](NC(=O)CCC(=O)c3ccc(S(C)(=O)=O)cc3)CC2)cc(N(C)C)n1` [compound 292] was tested, and the class was 3 (Class 3: The value of percent of control at 10^−7 M was more than 60% or the value of IC50 was more than 200 nM.).
With `COc1ccc2[nH]c(C(=O)N[C@H]3CC[C@@H](Nc4cc(N(C)C)nc(C)n4)CC3)cc2c1` [compound 293] the class was 3 (Class 3: The value of percent of control at 10^−7 M was more than 60% or the value of IC50 was more than 200 nM.).
`Cc1nc(N[C@H]2CC[C@@H](NC(=O)Cc3ccccc3C(=O)Nc3ccc(F)cc3F)CC2)cc(N(C)C)n1` [compound 294] was tested, and the class was 3 (Class 3: The value of percent of control at 10^−7 M was more than 60% or the value of IC50 was more than 200 nM.).
For `COc1ccc(OC)c(NC(=O)Cc2ccccc2C(=O)N[C@H]2CC[C@@H](Nc3cc(N(C)C)nc(C)n3)CC2)c1` [compound 295], the class was 3 (Class 3: The value of percent of control at 10^−7 M was more than 60% or the value of IC50 was more than 200 nM.).
`Cc1nc(N[C@H]2CC[C@@H](NC(=O)Cc3ccccc3C(=O)Nc3ccc(C(C)C)cc3)CC2)cc(N(C)C)n1` [compound 296] was tested, and the class was 3 (Class 3: The value of percent of control at 10^−7 M was more than 60% or the value of IC50 was more than 200 nM.).
With `Cc1nc(N[C@H]2CC[C@@H](NC(=O)Cc3ccccc3C(=O)Nc3ccc(OC(F)(F)F)cc3)CC2)cc(N(C)C)n1` [compound 297] the class was 3 (Class 3: The value of percent of control at 10^−7 M was more than 60% or the value of IC50 was more than 200 nM.).
With `Cc1nc(N[C@H]2CC[C@@H](NC(=O)CCCc3ccc([N+](=O)[O-])cc3)CC2)cc(N(C)C)n1` [compound 298] the class was 3 (Class 3: The value of percent of control at 10^−7 M was more than 60% or the value of IC50 was more than 200 nM.).
`Cc1nc(N[C@H]2CC[C@@H](NC(=O)Cc3ccc(Oc4ccccc4)cc3)CC2)cc(N(C)C)n1` [compound 300] was tested, and the class was 3 (Class 3: The value of percent of control at 10^−7 M was more than 60% or the value of IC50 was more than 200 nM.).
For `Cc1nc(N[C@H]2CC[C@@H](NC(=O)CCCCCCCCCCc3ccccc3)CC2)cc(N(C)C)n1` [compound 301], the class was 3 (Class 3: The value of percent of control at 10^−7 M was more than 60% or the value of IC50 was more than 200 nM.).
`Cc1nc(N[C@H]2CC[C@@H](NC(=O)CSc3ccncc3)CC2)cc(N(C)C)n1` [compound 302] was tested, and the class was 3 (Class 3: The value of percent of control at 10^−7 M was more than 60% or the value of IC50 was more than 200 nM.).
In the case of `Cc1nc(N[C@H]2CC[C@@H](NC(=O)CNc3ccccc3)CC2)cc(N(C)C)n1` [compound 303], the class was 3 (Class 3: The value of percent of control at 10^−7 M was more than 60% or the value of IC50 was more than 200 nM.).
With `Cc1nc(N[C@H]2CC[C@@H](NC(=O)c3ccccc3C(=O)c3ccc(F)cc3)CC2)cc(N(C)C)n1` [compound 304] the class was 3 (Class 3: The value of percent of control at 10^−7 M was more than 60% or the value of IC50 was more than 200 nM.).
With `Cc1nc(N[C@H]2CC[C@@H](NC(=O)c3ccccc3CCc3ccccc3)CC2)cc(N(C)C)n1` [compound 305] the class was 3 (Class 3: The value of percent of control at 10^−7 M was more than 60% or the value of IC50 was more than 200 nM.).
`CCSC(C(=O)N[C@H]1CC[C@@H](Nc2cc(N(C)C)nc(C)n2)CC1)(c1ccccc1)c1ccccc1` [compound 306, N-(cis-4-{[6-(dimethylamino)-2-methylpyrimidin-4-yl]amino}cyclohexyl)-2-(ethylthio)-2,2-diphenylacetamide] was tested, and the class was 1 (Class 1: The value of percent of control at 10^−7 M was less than 40% or the value of IC50 was less than 50 nM.).
For `Cc1nc(N[C@H]2CC[C@@H](NC(=O)c3ccccc3-c3ccc(C(F)(F)F)cc3)CC2)cc(N(C)C)n1` [compound 307], the class was 3 (Class 3: The value of percent of control at 10^−7 M was more than 60% or the value of IC50 was more than 200 nM.).
`Cc1nc(N[C@H]2CC[C@@H](NC(=O)c3cccc4c3-c3ccc([N+](=O)[O-])cc3C4)CC2)cc(N(C)C)n1` [compound 308] was tested, and the class was 3 (Class 3: The value of percent of control at 10^−7 M was more than 60% or the value of IC50 was more than 200 nM.).
With `Cc1nc(N[C@H]2CC[C@@H](NC(=O)[C@@H](C)c3cccc(C(=O)c4ccccc4)c3)CC2)cc(N(C)C)n1` [compound 309] the class was 3 (Class 3: The value of percent of control at 10^−7 M was more than 60% or the value of IC50 was more than 200 nM.).
`Cc1nc(N[C@H]2CC[C@@H](NC(=O)Cc3ccc(OC(F)(F)F)cc3)CC2)cc(N(C)C)n1` [compound 313] was tested, and the class was 3 (Class 3: The value of percent of control at 10^−7 M was more than 60% or the value of IC50 was more than 200 nM.).
For `Cc1nc(N[C@H]2CC[C@@H](NC(=O)Cc3ccc(SC(F)(F)F)cc3)CC2)cc(N(C)C)n1` [compound 315], the class was 3 (Class 3: The value of percent of control at 10^−7 M was more than 60% or the value of IC50 was more than 200 nM.).
With `Cc1nc(N[C@H]2CC[C@@H](NC(=O)CCCCc3cccs3)CC2)cc(N(C)C)n1` [compound 316] the class was 3 (Class 3: The value of percent of control at 10^−7 M was more than 60% or the value of IC50 was more than 200 nM.).

Source: patent US20090036448A1, “PYRIMIDINE DERIVATIVES AND METHODS OF TREATMENT RELATED TO THE USE THEREOF” (TAISHO PHARMECUTICAL CO., LTD., priority 2004, published 2009)
